Target: T1, Human Polθ polymerase domain (aa1820-2590) (Homo sapiens, UniProt O75417)
T1 construct: Human Polθ polymerase domain (aa1820-2590) was expressed in E. coli; made in house; host or cells: E. coli
T1 sequence (O75417 1820-2590): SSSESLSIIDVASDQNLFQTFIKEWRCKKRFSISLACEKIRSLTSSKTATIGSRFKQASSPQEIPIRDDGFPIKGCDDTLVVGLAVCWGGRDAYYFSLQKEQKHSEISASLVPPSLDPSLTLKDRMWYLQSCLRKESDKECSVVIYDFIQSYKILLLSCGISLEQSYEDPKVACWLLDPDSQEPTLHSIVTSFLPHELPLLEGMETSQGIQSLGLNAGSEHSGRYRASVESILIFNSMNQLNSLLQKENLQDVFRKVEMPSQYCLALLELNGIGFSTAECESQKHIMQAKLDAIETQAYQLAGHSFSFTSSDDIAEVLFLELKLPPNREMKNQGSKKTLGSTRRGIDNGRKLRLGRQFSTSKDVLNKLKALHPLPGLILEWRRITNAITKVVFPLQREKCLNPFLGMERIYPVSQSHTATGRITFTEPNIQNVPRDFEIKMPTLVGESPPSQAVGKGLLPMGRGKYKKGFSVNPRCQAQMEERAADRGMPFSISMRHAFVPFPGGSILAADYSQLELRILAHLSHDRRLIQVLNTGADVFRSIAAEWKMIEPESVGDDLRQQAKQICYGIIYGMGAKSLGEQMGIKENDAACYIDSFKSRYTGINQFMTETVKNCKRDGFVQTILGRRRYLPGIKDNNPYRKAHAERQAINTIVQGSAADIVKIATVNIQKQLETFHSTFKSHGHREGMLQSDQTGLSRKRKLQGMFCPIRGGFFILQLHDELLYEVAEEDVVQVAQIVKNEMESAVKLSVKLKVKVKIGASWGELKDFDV
Test: Polθ Polymerase Domain Kinact/KI Assay (PicoGreen)
Format: biochemical
Details: 0.8 nM Polθ, 100 nM DNA substrate, kobs vs [I] fit for 2-step covalent inhibitor
How it was run: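 Enzyme 0.8 nM, annealed DNA substrate 100 nM, […]; 25 mM Tris pH 7.5, 5% glycerol, 0.01% Triton X-100, 0.1 mg/ml BSA, 1 mM DTT, 1% DMSO. Quench with EDTA at timepoints to 60 min; PicoGreen read. kobs from time courses → Kinact/KI.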

Structure (SMILES) | Kinact/Kl
C=C(CN(C)C)C(=O)N1CC(c2ccc(CN3C[C@H]4CC(=O)N(c5cc(C(F)(F)F)cc(C)n5)[C@@H]4C(=O)N(C)c4cccc(C)c43)cc2)C1 [Example 186, (3aR,11aS)-5-(4-(1-(2-((dimethyl-amino)methyl)-acryloyl)azetidin-3-yl)benzyl)-6,10-dimethyl-1-(6-methyl-4-(trifluoro-methyl)pyridin-2-yl)-1,3a,4,5,10,11a-hexahydro-2H-benzo[b]pyrrolo [2,3-f][1,4]diazo-cine-2,11(3H)-dione] | 3.23e+06 M⁻¹ s⁻¹
C=C(CN(C)C)C(=O)N1CC(COCCN2C[C@H]3CC(=O)N(c4cc(C(F)(F)F)cc(C)n4)[C@@H]3C(=O)N(C)c3cccc(C)c32)C1 [Example 182, (3aR,11aS)-5-(2-((1-(2-((dimethyl-amino)methyl)-acryloyl)azetidin-3-yl)methoxy)eth-yl)-6,10-dimethyl-1-(6-methyl-4-(trifluoromethyl)-pyridin-2-yl)-1,3a,4,5,10,11a-hexahydro-2H-benzo[b]pyrrolo [2,3-f][1,4]diazo-cine-2,11(3H)-dione] | 5.23e+06 M⁻¹ s⁻¹
C=C(CN1CCN(C)CC1)C(=O)N1CC(COCCN2C[C@H]3CC(=O)N(c4cc(C(F)(F)F)cc(C)n4)[C@@H]3C(=O)N(C)c3cccc(C)c32)C1 [Example 193, (3aR,11aS)-6,10-dimethyl-1-(6-methyl-4-(trifluoro-methyl)pyridin-2-yl)-5-(2-((1-(2-((4-methylpiperazin-1-yl)methyl)acrylo-yl)azetidin-3-yl)-methoxy)ethyl)-1,3a,4,5,10,11a-hexahydro-2H-benzo[b]pyrrolo [2,3-f][1,4]diazo-cine-2,11(3H)-dione] | 2.58e+06 M⁻¹ s⁻¹
C=CC(=O)N1CC2(C1)NCCN(CCN1C[C@H]3CC(=O)N(c4cc(C(F)(F)F)cc(C)n4)[C@@H]3C(=O)N(C)c3cccc(F)c31)[C@H]2C (racemic) [Example 34a, (3aR,11aS)-5-(2-((S/R)-2-acryloyl-9-methyl-2,5,8-triazaspiro[3.5]nonan-8-yl)ethyl)-6-fluoro-10-methyl-1-(6-methyl-4-(trifluoromethyl)pyridin-2-yl)-1,3a,4,5, 10,11a-hexahydro-2H-benzo[b]pyrrolo [2,3-f][1,4]diazocine-2,11(3H)-dione] | 1.2e+06 M⁻¹ s⁻¹
C=CC(=O)N1CC(N2CCC(N3C[C@H]4CC(=O)N(c5cc(C(F)(F)F)cc(C)n5)[C@@H]4C(=O)N(C)c4cccc(F)c43)CC2)C1 [Example 216, (3aR,11aS)-5-(1-(1-acryloylazetidin-3-yl)piperidin-4-yl)-6-fluoro-10-methyl-1-(6-methyl-4-(trifluoromethyl)pyridin-2-yl)-1,3a,4,5,10,11a-hexahydro-2H-benzo[b]pyrrolo [2,3-f][1,4] diazocine-2,11(3H)-dione] | 430000 M⁻¹ s⁻¹
C=C(CN(C)C)C(=O)N1Cc2ccc(CN3C[C@H]4CC(=O)N(c5cc(C(F)(F)F)cc(C)n5)[C@@H]4C(=O)N(C)c4cccc(F)c43)cc2C1 [Example 153, (3aR, 11aS)-5-((2-(2-((dimethylamino)methyl)acryloyl)isoindolin-5-yl)methyl)-6-fluoro-10-methyl-1-(6-methyl-4-(trifluoromethyl)pyridin-2-yl)-1,3a,4,5,10,11a-hexahydro-2H-benzo[b]pyrrolo[2,3-f][1,4]diazocine-2,11(3H)-dione] | 1.51e+06 M⁻¹ s⁻¹
C=C(CN(C)C)C(=O)N1CC(c2ccc(CN3C[C@H]4CC(=O)N(c5cc(C(F)(F)F)cc(C)n5)[C@@H]4C(=O)N(C)c4cccc(F)c43)cc2)C1 [Example 151, (3aR, 11aS)-5-(4-(1-(2-((dimethylamino)methyl)acryloyl)azetidin-3-yl)benzyl)-6-fluoro-10-methyl-1-(6-methyl-4-(trifluoromethyl)pyridin-2-yl)-1,3a,4,5,10,11a-hexahydro-2H-benzo[b]pyrrolo[2,3-f][1,4]diazocine-2,11(3H)-dione] | 2.04e+06 M⁻¹ s⁻¹
C/C=C(\CN(C)C)C(=O)Nc1ccc(CN2C[C@H]3CC(=O)N(c4cc(C(F)(F)F)cc(C)n4)[C@@H]3C(=O)N(C)c3cccc(C)c32)cc1 [Example 89, (E)-N-(4-(((3aR,11aS)-6,10-dimethyl-1-(6-methyl-4-(trifluoromethyl)pyridin-2-yl)-2,11-dioxo-1,2,3,3a,4,10,11,11a-octahydro-5H-benzo[b]pyrrolo[2,3-f][1,4]diazocin-5-yl)methyl)phenyl)-2-((dimethylamino)methyl)but-2-enamide] | 2.4e+06 M⁻¹ s⁻¹
C=CC(=O)N1Cc2ncc(CN3C[C@H]4CC(=O)N(c5cc(C(F)(F)F)cc(C)n5)[C@@H]4C(=O)N(C)c4cccc(Cl)c43)cc2C1CC#N (single isomer, unassigned) [Example 291a] | 1.17e+06 M⁻¹ s⁻¹
Cc1cc(C(F)(F)F)cc(N2C(=O)C[C@@H]3CN(Cc4cn5c(n4)CN(C(=O)CCl)C(C)C5)c4c(Cl)cccc4N(C)C(=O)[C@H]32)n1 (mixture of isomers) [Example 73b, (3aR,11aS)-6-chloro-5-(((S/R)-7-(2-chloroacetyl)-6-methyl-5,6,7,8-tetrahydroimidazo[1,2-a]pyrazin-2-yl)methyl)-10-methyl-1-(6-methyl-4-(trifluoromethyl)pyridin-2-yl)-1,3a,4,5,10,11a-hexahydro-2H-benzo[b]pyrrolo[2,3-f][1,4]diazocine-2,11(3H)-dione] | 790000 M⁻¹ s⁻¹
C=CC(=O)N1Cc2nc(CN3C[C@H]4CC(=O)N(c5cc(C(F)(F)F)cc(C)n5)[C@@H]4C(=O)N(C)c4cccc(C)c43)sc2C1 [Example 315, (3aR,11aS)-5-((5-acryloyl-5,6-di-hydro-4H-pyrrolo [3,4-d]thiazol-2-yl)-methyl)-6,10-dimeth-yl-1-(6-methyl-4-(trifluoromethyl)-pyridin-2-yl)-1,3a,4,5,10,11a-hexahydro-2H-benzo[b]pyrrolo [2,3-f][1,4]diazocine-2,11(3H)-dione] | 1.79e+06 M⁻¹ s⁻¹
C=CC(=O)N1Cc2nc(CN3C[C@H]4CC(=O)N(c5cc(C(F)(F)F)cc(C)n5)[C@@H]4C(=O)N(C)c4cccc(Cl)c43)cn2CC1C (single isomer, unassigned) [Example 143a] | 1e+06 M⁻¹ s⁻¹
C=C(CN(C)C)C(=O)NCCCCCN1C[C@H]2CC(=O)N(c3cc(C(F)(F)F)cc(C)n3)[C@@H]2C(=O)N(C)c2cccc(C)c21 [Example 84, N-(5-((3aR,11aS)-6,10-dimethyl-1-(6-methyl-4-(trifluoromethyl)pyridin-2-yl)-2,11-dioxo-1,2,3,3a,4,10,11,11a-octahydro-5H-benzo[b]pyrrolo[2,3-f][1,4]diazocin-5-yl)pentyl)-2-((dimethylamino)methyl)acrylamide] | 3.61e+06 M⁻¹ s⁻¹
C=CC(=O)N1CC(N2CCN(CCN3C[C@H]4CC(=O)N(c5cc(C(F)(F)F)cc(C)n5)[C@@H]4C(=O)N(C)c4cccc(F)c43)C[C@H](F)C2)C1 [Example 29, (3aR,11aS)-5-(2-((S)-4-(1-acryloylazetidin-3-yl)-6-fluoro-1,4-diazepan-1-yl)ethyl)-6-fluoro-10-methyl-1-(6-methyl-4-(trifluoromethyl)pyridin-2-yl)-1,3a,4,5,10,11a-hexahydro-2H-benzo[b]pyrrolo[2,3-f][1,4]diazocine-2,11(3H)-dione] | 320000 M⁻¹ s⁻¹
C=CC(=O)N1CCN2CCN(CCN3C[C@H]4CC(=O)N(c5cc(C(F)(F)F)cc(C)n5)[C@@H]4C(=O)N(C)c4cccc(F)c43)CC2C1 (single isomer, unassigned) [Example 23b] | 540000 M⁻¹ s⁻¹

Reference: US20250230165A1, “HETEROCYCLIC COMPOUNDS FOR USE IN THE TREATMENT OF CANCER” (ARTIOS PHARMA LIMITED, priority 2021, published 2025)
